{"source": "ChEMBL document CHEMBL3044736", "about": "“Synthesis, characterization, solvatochromic properties, and antimicrobial evaluation of 5-acetyl-2-thioxo-dihydro-pyrimidine-4,6-dione-based chalcones” (2013)", "format_in_all_cases": "functional", "key": {"Klebsiella pneumoniae": {"test_system": "Klebsiella pneumoniae", "assay": "Antimicrobial activity against Klebsiella pneumoniae MTCC 109 by agar cup diffusion method"}, "Escherichia coli": {"test_system": "Escherichia coli", "assay": "Antimicrobial activity against Escherichia coli MTCC 443 by agar cup diffusion method"}, "Streptococcus pyogenes": {"test_system": "Streptococcus pyogenes", "assay": "Antimicrobial activity against Streptococcus pyogenes MTCC 442 by agar cup diffusion method"}, "Staphylococcus aureus": {"test_system": "Staphylococcus aureus", "assay": "Antimicrobial activity against Staphylococcus aureus MTCC 96 by agar cup diffusion method"}, "Aspergillus clavatus": {"test_system": "Aspergillus clavatus", "assay": "Antimicrobial activity against Aspergillus clavatus MTCC 1323 by agar cup diffusion method"}, "Candida albicans": {"test_system": "Candida albicans", "assay": "Antimicrobial activity against Candida albicans MTCC 227 by agar cup diffusion method"}, "Trichophyton rubrum": {"test_system": "Trichophyton rubrum", "assay": "Antimicrobial activity against Trichophyton rubrum MTCC 296 by agar cup diffusion method"}, "Penicillium": {"test_system": "Penicillium", "assay": "Antimicrobial activity against Penicillium wild strain by agar cup diffusion method"}}}
{"smiles": "O=C(O)c1cn(C2CC2)c2cc(N3CCNCC3)c(F)cc2c1=O", "note": "[CIPROFLOXACIN]", "values": [{"measurement": "MIC", "setting": "Klebsiella pneumoniae", "value": 25, "unit": "µg/mL"}, {"measurement": "MIC", "setting": "Escherichia coli", "value": 25, "unit": "µg/mL"}, {"measurement": "MIC", "setting": "Streptococcus pyogenes", "value": 50, "unit": "µg/mL"}, {"measurement": "MIC", "setting": "Staphylococcus aureus", "value": 100, "unit": "µg/mL"}]}
{"smiles": "COC1=CC(=O)C[C@@H](C)[C@]12Oc1c(Cl)c(OC)cc(OC)c1C2=O", "note": "[GRISEOFULVIN]", "values": [{"measurement": "MIC", "setting": "Aspergillus clavatus", "value": 100, "unit": "µg/mL"}, {"measurement": "MIC", "setting": "Candida albicans", "value": 100, "unit": "µg/mL"}, {"measurement": "MIC", "setting": "Trichophyton rubrum", "value": 500, "unit": "µg/mL"}, {"measurement": "MIC", "setting": "Penicillium", "value": 100, "unit": "µg/mL"}]}
